# According to PMC4774911, “Biochemical Screening of Five Protein Kinases from Plasmodium falciparum against 14,000 Cell-Active Compounds” (PLoS ONE, 2016):
# pKd: −log10 of the molar value. Where “and” joins values, the source holds several entries; their conditions need not be identical. Equal entries are not always repeated.
# Legend:
# Assay in all cases: biochemical
# Design in all cases: endogenous in cells; host or cells: K562 cell extract; species or system K562 (extract); replicate k of n = 2 (each experiment ID is one independent experiment; two experiment IDs per compound)
# Conditions in all cases: read-out: KDapp
# CDC2 = CDC2 (Homo sapiens, UniProt P06493)
# CDC2, sequence (P06493 whole entry): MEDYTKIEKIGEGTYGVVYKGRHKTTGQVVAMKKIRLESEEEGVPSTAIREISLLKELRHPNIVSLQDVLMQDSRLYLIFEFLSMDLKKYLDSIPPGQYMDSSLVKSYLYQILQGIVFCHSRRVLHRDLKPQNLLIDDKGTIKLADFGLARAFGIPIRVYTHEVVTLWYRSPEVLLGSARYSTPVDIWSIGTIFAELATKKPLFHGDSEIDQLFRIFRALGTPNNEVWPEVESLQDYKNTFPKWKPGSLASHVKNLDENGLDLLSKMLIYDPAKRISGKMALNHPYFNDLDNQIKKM
# NEK3 = target: T1, NEK3 (Homo sapiens, UniProt P51956)
# T1 sequence (P51956 1-506): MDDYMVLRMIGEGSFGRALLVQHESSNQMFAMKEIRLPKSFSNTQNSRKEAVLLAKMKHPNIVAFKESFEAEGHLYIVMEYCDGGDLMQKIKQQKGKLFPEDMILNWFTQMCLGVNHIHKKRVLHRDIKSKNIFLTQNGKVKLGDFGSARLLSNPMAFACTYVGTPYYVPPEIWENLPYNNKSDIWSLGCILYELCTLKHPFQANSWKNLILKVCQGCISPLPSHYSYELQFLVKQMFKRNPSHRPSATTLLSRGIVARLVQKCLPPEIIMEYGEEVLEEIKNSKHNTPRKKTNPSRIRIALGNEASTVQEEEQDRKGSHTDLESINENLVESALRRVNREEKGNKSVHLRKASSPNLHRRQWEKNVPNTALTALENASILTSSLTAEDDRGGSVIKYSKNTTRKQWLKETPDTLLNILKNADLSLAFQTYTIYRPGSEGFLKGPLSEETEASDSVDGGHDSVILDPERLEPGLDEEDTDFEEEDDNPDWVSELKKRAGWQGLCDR
# NLK = target: T2, NLK (Homo sapiens, UniProt Q9UBE8)
# T2 sequence (Q9UBE8 1-527): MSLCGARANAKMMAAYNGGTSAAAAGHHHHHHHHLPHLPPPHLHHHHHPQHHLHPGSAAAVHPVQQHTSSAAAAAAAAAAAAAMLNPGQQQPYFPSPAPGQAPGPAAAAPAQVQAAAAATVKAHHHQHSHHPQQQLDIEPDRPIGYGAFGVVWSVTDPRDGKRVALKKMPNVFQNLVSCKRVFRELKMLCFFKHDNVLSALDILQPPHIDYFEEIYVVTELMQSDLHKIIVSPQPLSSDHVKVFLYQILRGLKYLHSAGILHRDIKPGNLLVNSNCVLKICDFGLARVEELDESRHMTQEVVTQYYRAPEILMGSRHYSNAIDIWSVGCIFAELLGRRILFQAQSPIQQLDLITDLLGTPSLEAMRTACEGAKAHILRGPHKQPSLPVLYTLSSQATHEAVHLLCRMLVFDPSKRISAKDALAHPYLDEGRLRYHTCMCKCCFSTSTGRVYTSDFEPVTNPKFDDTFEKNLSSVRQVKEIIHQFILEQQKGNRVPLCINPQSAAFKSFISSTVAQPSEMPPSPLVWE
# PDPK1 = target: T3, PDPK1 (Homo sapiens, UniProt O15530)
# T3 sequence (O15530 1-556): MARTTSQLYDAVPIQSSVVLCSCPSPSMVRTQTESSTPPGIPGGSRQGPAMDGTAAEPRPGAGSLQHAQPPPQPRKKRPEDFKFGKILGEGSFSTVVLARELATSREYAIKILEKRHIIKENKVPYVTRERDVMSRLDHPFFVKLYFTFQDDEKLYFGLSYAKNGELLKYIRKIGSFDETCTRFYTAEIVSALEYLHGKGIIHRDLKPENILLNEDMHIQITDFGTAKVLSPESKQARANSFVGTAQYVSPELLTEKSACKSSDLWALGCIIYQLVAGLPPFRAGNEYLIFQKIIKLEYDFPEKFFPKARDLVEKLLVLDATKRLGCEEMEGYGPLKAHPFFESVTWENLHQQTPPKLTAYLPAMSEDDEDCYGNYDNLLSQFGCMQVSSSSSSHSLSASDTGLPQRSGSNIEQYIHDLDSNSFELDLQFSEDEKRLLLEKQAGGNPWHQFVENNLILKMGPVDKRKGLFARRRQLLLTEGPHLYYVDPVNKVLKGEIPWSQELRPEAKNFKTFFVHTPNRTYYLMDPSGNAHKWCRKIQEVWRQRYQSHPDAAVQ
# PRKCA = PRKCA (Homo sapiens, UniProt P17252)
# RPS6KA5 = RPS6KA5 (Homo sapiens, UniProt O75582)
# RPS6KA5, sequence (O75582 whole entry): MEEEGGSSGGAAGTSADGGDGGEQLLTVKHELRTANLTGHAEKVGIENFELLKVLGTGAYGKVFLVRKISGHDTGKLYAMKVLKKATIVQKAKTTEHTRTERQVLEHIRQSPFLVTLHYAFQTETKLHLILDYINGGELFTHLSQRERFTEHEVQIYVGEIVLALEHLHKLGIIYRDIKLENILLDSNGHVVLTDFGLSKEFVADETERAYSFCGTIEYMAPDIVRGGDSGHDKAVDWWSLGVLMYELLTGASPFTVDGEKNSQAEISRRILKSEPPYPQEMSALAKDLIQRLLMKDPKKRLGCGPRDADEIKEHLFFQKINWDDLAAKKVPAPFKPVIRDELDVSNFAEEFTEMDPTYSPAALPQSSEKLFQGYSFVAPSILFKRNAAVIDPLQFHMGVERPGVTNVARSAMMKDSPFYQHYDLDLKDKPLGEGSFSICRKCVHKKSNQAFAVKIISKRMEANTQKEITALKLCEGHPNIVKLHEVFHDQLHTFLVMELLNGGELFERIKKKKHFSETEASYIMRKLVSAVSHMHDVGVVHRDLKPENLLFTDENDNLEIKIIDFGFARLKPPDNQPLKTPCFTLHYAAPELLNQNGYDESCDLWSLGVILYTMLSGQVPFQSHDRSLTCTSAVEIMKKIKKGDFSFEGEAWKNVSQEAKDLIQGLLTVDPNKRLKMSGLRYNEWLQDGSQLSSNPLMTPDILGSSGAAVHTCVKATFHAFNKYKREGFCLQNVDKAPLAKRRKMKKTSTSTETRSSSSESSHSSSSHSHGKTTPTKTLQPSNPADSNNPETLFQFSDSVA
# ULK3 = target: T4, ULK3 (Homo sapiens, UniProt Q6PHR2)
# T4 sequence (Q6PHR2 1-472): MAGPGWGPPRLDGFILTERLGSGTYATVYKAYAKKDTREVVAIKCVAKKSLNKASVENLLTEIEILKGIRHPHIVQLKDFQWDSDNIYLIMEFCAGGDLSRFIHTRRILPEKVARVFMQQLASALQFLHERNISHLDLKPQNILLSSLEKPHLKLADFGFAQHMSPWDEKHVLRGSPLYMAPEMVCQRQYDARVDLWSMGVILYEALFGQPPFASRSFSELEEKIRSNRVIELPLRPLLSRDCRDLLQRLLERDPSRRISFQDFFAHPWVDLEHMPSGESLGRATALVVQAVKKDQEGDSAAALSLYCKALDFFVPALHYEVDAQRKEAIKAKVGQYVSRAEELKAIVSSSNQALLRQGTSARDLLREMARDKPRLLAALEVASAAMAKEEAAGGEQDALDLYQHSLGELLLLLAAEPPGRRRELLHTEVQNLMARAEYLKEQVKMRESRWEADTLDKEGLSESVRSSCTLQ
compound,measurement,setting,value
CN1CCN(c2ccc(Nc3ncc(C#N)c(Nc4ccccc4C(N)=O)n3)cc2)CC1.Cl [TCMDC-134116],pKd,CDC2,5.92
same,pKd,NEK3,6.14
same,pKd,NLK,6.02 and 6.05
same,pKd,PDPK1,6.22 and 6.30
same,pKd,PRKCA,6.41
same,pKd,RPS6KA5,6.41 and 6.23
same,pKd,ULK3,7.79 and 7.59
